Common to all, as to assay: Cell viability assay (Cell-Titer GLO)
Format in all cases: cell-based

Assay [1] relates to Du145. As to conditions: Homo sapiens, DU-145, Prostate cancer, 48 hrs, read-out: Anti-proliferative EC50. The protocol:
(§1) For cell viability, cells were seeded in 384 opaque-walled plates with clear bottoms at 300–500 cells per well (optimum density for growth) in a total volume of 20 μL of media. The media was according to culture conditions of each individual cell line (mentioned above). After 12 hrs, compounds were added in a total volume of 5 μL of media (two-fold diluted) to each well with final concentrations from 5 nM to 30 μM. The measurements were conducted 48 hrs after seeding of the cells. Then, 25 μL of Cell-Titer GLO reagent (Promega) was added, and luminescence was measured on an EnSpire multimode plate reader (PerkinElmer), according to the manufacturer’s instructions. The estimated in vitro half-maximal inhibitory concentration (EC50) values were calculated using GraphPad Prism® v6.0 (San Diego, CA) software. The cell viability for A549 cells was also performed for 72- and 96-hrs by using the same experimental conditions as described above.

Assay [2] deals with 22RV1. As to conditions: Homo sapiens, Prostate cancer, 48 hrs, read-out: Anti-proliferative EC50. The protocol:
as §1

For assay [3], the system named is HCT116. As to conditions: Homo sapiens, HCT-116, Colon carcinoma, 48 hrs, read-out: Anti-proliferative EC50. The protocol:
as §1

The subject of assay [4] is NCI-N87. As to conditions: Homo sapiens; NCI-N87^c; Gastric cancer; p53 null or mutant cancer cell lines; 48 hrs; read-out: Anti-proliferative EC50. The protocol:
as §1

The test system of assay [5] is H1650. As to conditions: Homo sapiens, NCI-H1650, Lung cancer, 48 hrs, read-out: Anti-proliferative EC50. The protocol:
as §1

In assay [6] the test system is MGC-803. The conditions noted are these: Homo sapiens; MGC-803^c; Gastric cancer; p53 null or mutant cancer cell lines; 48 hrs; read-out: Anti-proliferative EC50. The protocol: as §1
In assay [7] the test system is H460. The conditions noted are these: Homo sapiens, NCI-H460, Lung cancer, 48 hrs, read-out: Anti-proliferative EC50. The protocol:
as §1

Assay [8] relates to H1299. The conditions noted are these: Homo sapiens, NCI-H1299; H1299^b; Lung cancer; p53 null or mutant cancer cell lines; 48 hrs; read-out: Anti-proliferative EC50. The protocol: as §1
Assay [9] deals with MCF-7. As to conditions: Homo sapiens, MCF7, Breast cancer, 48 hrs, read-out: Anti-proliferative EC50. The protocol: as §1
The subject of assay [10] is Huh-7. As to conditions: Homo sapiens, Liver cancer, 48 hrs, read-out: Anti-proliferative EC50. The protocol: as §1
Assay [11] has as its system 95D. The conditions noted are these: Lung cancer, 48 hrs, read-out: Anti-proliferative EC50. The protocol:
as §1

For assay [12], the system named is Hela. As to conditions: Homo sapiens, Cervical cancer, 48 hrs, read-out: Anti-proliferative EC50. The protocol: as §1
In assay [13] the test system is LNCaP. As to conditions: Homo sapiens, Prostate cancer, 48 hrs, read-out: Anti-proliferative EC50. The protocol: as §1
The subject of assay [14] is K562. As to conditions: Homo sapiens, Leukemia, 48 hrs, read-out: Anti-proliferative EC50. The protocol:
as §1

The subject of assay [15] is βTC6. The conditions noted are these: βTC6^a; Pancreatic insulinoma; 48 hrs; read-out: Anti-proliferative EC50. The protocol:
as §1

Assay [16] relates to C4-2B. The conditions noted are these: Prostate cancer, 48 hrs, read-out: Anti-proliferative EC50. The protocol: as §1
Assay [17] relates to H358. The conditions noted are these: Homo sapiens, NCI-H358; H358^b; Lung cancer; p53 null or mutant cancer cell lines; 48 hrs; read-out: Anti-proliferative EC50. The protocol: as §1
For assay [18], the system named is LLC. As to conditions: Lewis lung carcinoma; LLC^a; Lung cancer; 48 hrs; read-out: Anti-proliferative EC50. The protocol: as §1
Assay [19] deals with A431. The conditions noted are these: Homo sapiens, A-431; A431^c; Skin carcinoma; p53 null or mutant cancer cell lines; 48 hrs; read-out: Anti-proliferative EC50. The protocol: as §1
Assay [20] concerns MKN-7. The conditions noted are these: Homo sapiens; MKN-7^c; Gastric cancer; p53 null or mutant cancer cell lines; 48 hrs; read-out: Anti-proliferative EC50. The protocol:
as §1

Assay [21] has as its system U2OS. As to conditions: Homo sapiens, Osteosarcoma, 48 hrs, read-out: Anti-proliferative EC50. The protocol: as §1
Assay [22] deals with MDA-MB-231. As to conditions: Homo sapiens, Breast cancer, 48 hrs, read-out: Anti-proliferative EC50. The protocol:
as §1

Assay [23] concerns HepG2. As to conditions: Homo sapiens, Liver cancer, 48 hrs, read-out: Anti-proliferative EC50. The protocol: as §1
In assay [24] the test system is Hs578T. The conditions noted are these: Homo sapiens, Hs-578T, Breast cancer, 48 hrs, read-out: Anti-proliferative EC50. The protocol: as §1

Data on one compound can be found in PMC9249674, “A small-molecule Skp1 inhibitor elicits cell death by p53-dependent mechanism” (iScience, 2022).

SMILES strings stand for the structures.

By EC50 is commonly meant the concentration needed to bring the measured effect to its halfway point.

In the case of `Nc1ccc(-c2nc3ccccc3c3[nH]c4ccccc4c23)cc1` [Z0933M], the EC50 in [1] is 0.25 ± 0.02 µM; in assay [2], 1.11 ± 0.1 µM; in [3], 2.82 ± 0.33 µM; in [4], greater than 30 µM; in assay [5], 2.35 ± 0.45 µM; in assay [6] it was greater than 30 µM. In addition, the EC50 was found to be 2.69 ± 0.07 µM in assay [7]; 11.5 ± 0.21 µM in assay [8]; 1.46 ± 0.01 µM in assay [9]; 3.6 ± 0.81 µM in assay [10]; 3.14 ± 0.26 µM in assay [11]; 0.36 ± 0.06 µM in assay [12]. The EC50 is 0.88 ± 0.03 µM in assay [13]; 0.735 ± 0.03 µM in assay [14]; 0.37 ± 0.007 µM in [15]; 1.9 ± 0.07 µM in assay [16]; 14.9 ± 0.42 µM in assay [17]; 1.85 ± 0.35 µM in assay [18]. The EC50 in assay [19] was greater than 30 µM; in assay [20], greater than 30 µM; in [21], 0.97 ± 0.09 µM; in assay [22], 2.9 ± 0.63 µM; in assay [23], 4.08 ± 0.95 µM; in assay [24], 2.49 ± 0.07 µM.
